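A five-concentration, 48-hour dose response in 96-well plates underlies each endpoint, interpolated linearly between surrounding concentrations. GI50 = concentration required for 50% inhibition of growth. Definition used: TGI = concentration required for complete inhibition of growth.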

The test system of one assay is MALME-3M melanoma. Put plainly: NCI tumour cell line growth inhibition, 48 h.
For `CCCN(Cc1ccc(F)cc1)c1ccc(CO)c(Cl)c1`, the GI50 is 14.1 µM and the TGI worked out at 28.6 µM.

On to `Cc1ccc2[nH]c(C(=O)NN3C(=O)CSC34CCCCC4C)c(-c3ccccc3)c2c1` (stereo unspecified), for which the GI50 is 17.3 µM and the TGI worked out at 35.6 µM.

As for `CCN=C1C=CC(=C(c2ccc(N(C)C)cc2)c2ccc(N(C)C)cc2)c2ccccc21`, the GI50 is 0.026 µM and the TGI came to 0.0855 µM.

For `CCc1c(C)[nH]c(/C=C2\N=C(c3ccc[nH]3)C=C2OC)c1C`, the GI50 was 0.474 µM and the TGI turned out to be 2.05 µM.

Regarding `CC(=O)OC1c2ccccc2CC2(OC(C)=O)c3ccccc3C12` (stereo unspecified), the TGI was > 100 µM.

For the compound `COc1ccc2c(c1)CCC1C2CCC2(C)C1CCC2(O)CNC(=O)CCCCC1CCSS1` (stereo unspecified), the GI50 is > 100 µM and the TGI was > 100 µM.

`CC12CCC(=O)C(O1)C1C(=O)c3cc4ccccc4cc3C(=O)C12` (stereo unspecified): the GI50 is 12.9 µM and the TGI was 29.5 µM.

For `CN(C)c1ccc2nc3ccc(=[N+](C)C)cc-3oc2c1`, the GI50 is 1.67 µM and the TGI was 4.13 µM.

With `O=S(=O)(c1ccc(NC(=S)NCc2cccnc2)cc1)N1CCCCC1`, the GI50 is 84.9 µM and the TGI was > 100 µM.

For the compound `COc1cccc(C2=C(c3cn(C)c4ccccc34)C(=O)NC2=O)c1`, the GI50 is 14.2 µM and the TGI was > 25 µM.

Turning to `CSc1nnc(CCSc2ccnc3c(C(F)(F)F)cccc23)o1`, the GI50 is > 100 µM and the TGI is > 100 µM.

Take `N#CC(C#N)=Cc1ccc(-c2ccc(-c3nc4ccccc4s3)cc2)o1`: the GI50 is 22.2 µM and the TGI is > 100 µM.

The subject of a further assay is MOLT-4 leukemia. In words: NCI tumour cell line growth inhibition, 48 h.
Take `CCCN(Cc1ccc(F)cc1)c1ccc(CO)c(Cl)c1`: the GI50 was 11.2 µM and the TGI stood at 30.1 µM.

Turning to `Cc1ccc2[nH]c(C(=O)NN3C(=O)CSC34CCCCC4C)c(-c3ccccc3)c2c1` (stereo unspecified), the GI50 is 9.38 µM and the TGI stood at 28.4 µM.

Take `CCN=C1C=CC(=C(c2ccc(N(C)C)cc2)c2ccc(N(C)C)cc2)c2ccccc21`: the GI50 is 0.202 µM and the TGI was 2.54 µM.

For `CN(C)CCCNC(=O)c1cc(NC(=O)CCNS(=O)(=O)c2ccc3c(c2)C(=O)c2ccccc2C3=O)cn1C`, the GI50 was > 100 µM and the TGI was > 100 µM.

Turning to `CCc1c(C)[nH]c(/C=C2\N=C(c3ccc[nH]3)C=C2OC)c1C`, the GI50 is < 0.0394 µM and the TGI came to 4.18 µM.

Regarding `CC(=O)OC1c2ccccc2CC2(OC(C)=O)c3ccccc3C12` (stereo unspecified), the TGI is > 100 µM.

On to `Nc1nc(/C=C\c2ccc([N+](=O)[O-])o2)nc(N2CCN(c3ccccc3)CC2)n1`, for which the GI50 was 8.39 µM and the TGI was > 100 µM.

On to `COc1ccc2c(c1)CCC1C2CCC2(C)C1CCC2(O)CNC(=O)CCCCC1CCSS1` (stereo unspecified), for which the GI50 is 1.66 µM and the TGI was > 100 µM.

Regarding `CC12CCC(=O)C(O1)C1C(=O)c3cc4ccccc4cc3C(=O)C12` (stereo unspecified), the GI50 is 10.4 µM and the TGI is 74.1 µM.

For `CC1(C)CCC2(C(=O)OC3OC(CO)C(O)C(O)C3O)CC[C@]3(C)C(=CCC4C5(C)CC[C@H](OC6OC(C(=O)O)C(O)C(O)C6O)C(C)(C)C5CCC43C)C2C1` (stereo partly specified), the GI50 was 0.997 µM and the TGI turned out to be 2.84 µM.

Take `CN(C)c1ccc2nc3ccc(=[N+](C)C)cc-3oc2c1`: the GI50 is 1.76 µM and the TGI is 5.04 µM.

Consider `O=S(=O)(c1ccc(NC(=S)NCc2cccnc2)cc1)N1CCCCC1`, for which the GI50 is 40.3 µM and the TGI was > 100 µM.

In the case of `COc1cccc(C2=C(c3cn(C)c4ccccc34)C(=O)NC2=O)c1`, the GI50 is 8.54 µM and the TGI was > 25 µM.

As for `C=C1C(=O)O[C@@H]2C1CC(=O)C(C)CC/C=C(\C)CCC[C@H](C)[C@H]2OC(C)=O` (stereo partly specified), the GI50 was 10.9 µM and the TGI amounted to 35 µM.

Take `CSc1nnc(CCSc2ccnc3c(C(F)(F)F)cccc23)o1`: the GI50 is 27.7 µM and the TGI is > 100 µM.

As to `N#CC(C#N)=Cc1ccc(-c2ccc(-c3nc4ccccc4s3)cc2)o1`, the GI50 was 14 µM and the TGI is > 100 µM.

With `O=C1C(Cl)=C(N/N=c2/[nH][nH]/c(=N/NC3=C(Cl)C(=O)c4ccccc4C3=O)c3ccccc23)C(=O)c2ccccc21`, the GI50 was 4.9 µM and the TGI amounted to 34.6 µM.

The next assay deals with NCI-H522 lung. In words: NCI tumour cell line growth inhibition, 48 h.
Take `CCCN(Cc1ccc(F)cc1)c1ccc(CO)c(Cl)c1`: the GI50 is 9.5 µM and the TGI was found to be 22.6 µM.

As to `Cc1ccc2[nH]c(C(=O)NN3C(=O)CSC34CCCCC4C)c(-c3ccccc3)c2c1` (stereo unspecified), the GI50 is 13.1 µM and the TGI was found to be 27.9 µM.

Regarding `CN(C)CCCNC(=O)c1cc(NC(=O)CCNS(=O)(=O)c2ccc3c(c2)C(=O)c2ccccc2C3=O)cn1C`, the GI50 is > 100 µM and the TGI is > 100 µM.

On to `CCc1c(C)[nH]c(/C=C2\N=C(c3ccc[nH]3)C=C2OC)c1C`, for which the GI50 is 0.576 µM and the TGI stood at 2.34 µM.

With `Nc1nc(/C=C\c2ccc([N+](=O)[O-])o2)nc(N2CCN(c3ccccc3)CC2)n1`, the GI50 is 3.02 µM and the TGI is 9.94 µM.

For `COc1ccc2c(c1)CCC1C2CCC2(C)C1CCC2(O)CNC(=O)CCCCC1CCSS1` (stereo unspecified), the GI50 is 23.7 µM and the TGI was > 100 µM.

Consider `CC12CCC(=O)C(O1)C1C(=O)c3cc4ccccc4cc3C(=O)C12` (stereo unspecified), for which the GI50 was 21.9 µM and the TGI stood at 52.3 µM.

For the compound `CC1(C)CCC2(C(=O)OC3OC(CO)C(O)C(O)C3O)CC[C@]3(C)C(=CCC4C5(C)CC[C@H](OC6OC(C(=O)O)C(O)C(O)C6O)C(C)(C)C5CCC43C)C2C1` (stereo partly specified), the GI50 was 1.72 µM and the TGI came to 9.71 µM.

As for `O=S(=O)(c1ccc(NC(=S)NCc2cccnc2)cc1)N1CCCCC1`, the GI50 is 10.1 µM and the TGI was > 100 µM.

As for `COc1cccc(C2=C(c3cn(C)c4ccccc34)C(=O)NC2=O)c1`, the GI50 was 6.35 µM and the TGI came out at 25 µM.

`C=C1C(=O)O[C@@H]2C1CC(=O)C(C)CC/C=C(\C)CCC[C@H](C)[C@H]2OC(C)=O` (stereo partly specified): the GI50 was 15.9 µM and the TGI amounted to 41.6 µM.

`CSc1nnc(CCSc2ccnc3c(C(F)(F)F)cccc23)o1`: the GI50 is > 100 µM and the TGI is > 100 µM.

Take `N#CC(C#N)=Cc1ccc(-c2ccc(-c3nc4ccccc4s3)cc2)o1`: the GI50 is 17.8 µM and the TGI came out at 51.8 µM.

Take `O=C1C(Cl)=C(N/N=c2/[nH][nH]/c(=N/NC3=C(Cl)C(=O)c4ccccc4C3=O)c3ccccc23)C(=O)c2ccccc21`: the GI50 is 2.78 µM and the TGI was found to be 10.9 µM.

The next assay concerns EKVX NSCLC. Put plainly: NCI tumour cell line growth inhibition, 48 h.
For `Cc1ccc2[nH]c(C(=O)NN3C(=O)CSC34CCCCC4C)c(-c3ccccc3)c2c1` (stereo unspecified), the GI50 is 17 µM and the TGI came to 33.8 µM.

Turning to `CCN=C1C=CC(=C(c2ccc(N(C)C)cc2)c2ccc(N(C)C)cc2)c2ccccc21`, the GI50 is 0.0445 µM and the TGI came to 0.488 µM.

Regarding `CN(C)CCCNC(=O)c1cc(NC(=O)CCNS(=O)(=O)c2ccc3c(c2)C(=O)c2ccccc2C3=O)cn1C`, the GI50 was > 100 µM and the TGI was > 100 µM.

Take `CCc1c(C)[nH]c(/C=C2\N=C(c3ccc[nH]3)C=C2OC)c1C`: the GI50 was 0.707 µM and the TGI is 9.93 µM.

`CC(=O)OC1c2ccccc2CC2(OC(C)=O)c3ccccc3C12` (stereo unspecified): the TGI is > 100 µM.

Consider `Nc1nc(/C=C\c2ccc([N+](=O)[O-])o2)nc(N2CCN(c3ccccc3)CC2)n1`, for which the GI50 was 23.1 µM and the TGI is > 100 µM.

With `COc1ccc2c(c1)CCC1C2CCC2(C)C1CCC2(O)CNC(=O)CCCCC1CCSS1` (stereo unspecified), the GI50 is 48 µM and the TGI is > 100 µM.

`CC12CCC(=O)C(O1)C1C(=O)c3cc4ccccc4cc3C(=O)C12` (stereo unspecified): the GI50 was 23.4 µM and the TGI was 72.2 µM.

On to `CC1(C)CCC2(C(=O)OC3OC(CO)C(O)C(O)C3O)CC[C@]3(C)C(=CCC4C5(C)CC[C@H](OC6OC(C(=O)O)C(O)C(O)C6O)C(C)(C)C5CCC43C)C2C1` (stereo partly specified), for which the GI50 was 3.39 µM and the TGI was 36.6 µM.

As to `CN(C)c1ccc2nc3ccc(=[N+](C)C)cc-3oc2c1`, the GI50 was 0.636 µM and the TGI was 6.76 µM.

In the case of `C=C1C(=O)O[C@@H]2C1CC(=O)C(C)CC/C=C(\C)CCC[C@H](C)[C@H]2OC(C)=O` (stereo partly specified), the GI50 is 16.3 µM and the TGI turned out to be 31.5 µM.

On to `CSc1nnc(CCSc2ccnc3c(C(F)(F)F)cccc23)o1`, for which the GI50 is 9.21 µM and the TGI was > 100 µM.

Consider `N#CC(C#N)=Cc1ccc(-c2ccc(-c3nc4ccccc4s3)cc2)o1`, for which the GI50 was 25.7 µM and the TGI was > 100 µM.

The test system of a further assay is SW-620 colon. In words: NCI tumour cell line growth inhibition, 48 h.
Take `CCCN(Cc1ccc(F)cc1)c1ccc(CO)c(Cl)c1`: the GI50 was 1.07 µM and the TGI came to 15.6 µM.

As to `Cc1ccc2[nH]c(C(=O)NN3C(=O)CSC34CCCCC4C)c(-c3ccccc3)c2c1` (stereo unspecified), the GI50 is 23.8 µM and the TGI came out at 60.1 µM.

Consider `CCN=C1C=CC(=C(c2ccc(N(C)C)cc2)c2ccc(N(C)C)cc2)c2ccccc21`, for which the GI50 is 0.113 µM and the TGI turned out to be 1.11 µM.

`CN(C)CCCNC(=O)c1cc(NC(=O)CCNS(=O)(=O)c2ccc3c(c2)C(=O)c2ccccc2C3=O)cn1C`: the GI50 is > 100 µM and the TGI is > 100 µM.

`CCc1c(C)[nH]c(/C=C2\N=C(c3ccc[nH]3)C=C2OC)c1C` yielded a TGI of 6.56 µM.

For the compound `CC(=O)OC1c2ccccc2CC2(OC(C)=O)c3ccccc3C12` (stereo unspecified), the TGI was > 100 µM.

As for `Nc1nc(/C=C\c2ccc([N+](=O)[O-])o2)nc(N2CCN(c3ccccc3)CC2)n1`, the GI50 was 4.6 µM and the TGI is > 100 µM.

Regarding `COc1ccc2c(c1)CCC1C2CCC2(C)C1CCC2(O)CNC(=O)CCCCC1CCSS1` (stereo unspecified), the GI50 was 12.4 µM and the TGI was > 100 µM.

`CC1(C)CCC2(C(=O)OC3OC(CO)C(O)C(O)C3O)CC[C@]3(C)C(=CCC4C5(C)CC[C@H](OC6OC(C(=O)O)C(O)C(O)C6O)C(C)(C)C5CCC43C)C2C1` (stereo partly specified): the GI50 is 1.93 µM and the TGI was 8.87 µM.

Consider `CN(C)c1ccc2nc3ccc(=[N+](C)C)cc-3oc2c1`, for which the GI50 is 1.74 µM and the TGI was > 100 µM.

`O=S(=O)(c1ccc(NC(=S)NCc2cccnc2)cc1)N1CCCCC1`: the GI50 is 0.579 µM and the TGI is > 100 µM.

For `COc1cccc(C2=C(c3cn(C)c4ccccc34)C(=O)NC2=O)c1`, the GI50 is 9.13 µM and the TGI was > 25 µM.

On to `C=C1C(=O)O[C@@H]2C1CC(=O)C(C)CC/C=C(\C)CCC[C@H](C)[C@H]2OC(C)=O` (stereo partly specified), for which the GI50 is 9.18 µM and the TGI was 21.9 µM.

Consider `CSc1nnc(CCSc2ccnc3c(C(F)(F)F)cccc23)o1`, for which the GI50 was > 100 µM and the TGI is > 100 µM.

`N#CC(C#N)=Cc1ccc(-c2ccc(-c3nc4ccccc4s3)cc2)o1`: the GI50 was 7.9 µM and the TGI was > 100 µM.

On to `O=C1C(Cl)=C(N/N=c2/[nH][nH]/c(=N/NC3=C(Cl)C(=O)c4ccccc4C3=O)c3ccccc23)C(=O)c2ccccc21`, for which the GI50 was 16.6 µM and the TGI came to 43.3 µM.

The subject of a further assay is M14 melanoma. In words: NCI tumour cell line growth inhibition, 48 h.
On to `CCCN(Cc1ccc(F)cc1)c1ccc(CO)c(Cl)c1`, for which the GI50 was 14.3 µM and the TGI is 32.9 µM.

Source of the values: PubChem BioAssay (NCI).
